ChEMBL document CHEMBL1201862, “PubChem BioAssay data set” (2004)
Activity calls are given as the source filed them.

Assays:
HeLa = experiment: HeLa cell cytotoxicity, dose response, cytotoxicity control for MITF activator project, CellTiter-Glo luminescence, cherry-pick samples (AID 540259); assay type: functional, cell-based; conditions: Homo sapiens
[1] = biological target: Delta-type opioid receptor (Homo sapiens, UniProt P41143); experiment: Counterscreen for agonists of heterodimerization of the mu 1 (OPRM1) and delta 1 (OPRD1) opioid receptors: Luminescence-based cell-based high throughput dose response assay to identify agonists of OPRD1 homodimerization. [Related pubchem assays (depositor defined):AID504326, AID504355, AID504692, AID504904, AID504905]; assay type: functional
Mu-type opioid receptor = Mu-type opioid receptor (Homo sapiens, UniProt P35372); experiment: Counterscreen for agonists of heterodimerization of the mu 1 (OPRM1) and delta 1 (OPRD1) opioid receptors: Luminescence-based cell-based high throughput dose response assay to identify agonists of OPRM1 homodimerization.; assay type: functional;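 note: U2OS cells expressing OPRM1 and beta-arrestin as split beta-galactosidase partners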
[2] = biological target: Voltage-gated inwardly rectifying potassium channel KCNH2 (Homo sapiens, UniProt Q12809); conditions: Potency;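 note: confirmatory quantitative high-throughput screen measuring inhibition of hERG channel activity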
[3] = biological target: 5-hydroxytryptamine receptor 5A (Homo sapiens, UniProt P47898); experiment: Counterscreen for agonists of OPRM1-OPRD1 heterodimerization: luminescence-based cell-based high throughput dose response assay to identify agonists of 5-hydroxytryptamine (serotonin) 5A receptor (HTR5A). [Related pubchem assays (depositor defined):AID504326, AID504355, AID504692, AID504904, AID504905]; assay type: functional
[4] = biological target: T1, Rac GTPase-activating protein 1 (Homo sapiens, UniProt Q9H0H5); experiment: MgcRacGAP GTPase-activating activity inhibitors, confirmation, biochemical, ADP Hunter fluorescence, primary and confirmatory (AID 624330); assay type: functional
T1 sequence (Q9H0H5 whole entry): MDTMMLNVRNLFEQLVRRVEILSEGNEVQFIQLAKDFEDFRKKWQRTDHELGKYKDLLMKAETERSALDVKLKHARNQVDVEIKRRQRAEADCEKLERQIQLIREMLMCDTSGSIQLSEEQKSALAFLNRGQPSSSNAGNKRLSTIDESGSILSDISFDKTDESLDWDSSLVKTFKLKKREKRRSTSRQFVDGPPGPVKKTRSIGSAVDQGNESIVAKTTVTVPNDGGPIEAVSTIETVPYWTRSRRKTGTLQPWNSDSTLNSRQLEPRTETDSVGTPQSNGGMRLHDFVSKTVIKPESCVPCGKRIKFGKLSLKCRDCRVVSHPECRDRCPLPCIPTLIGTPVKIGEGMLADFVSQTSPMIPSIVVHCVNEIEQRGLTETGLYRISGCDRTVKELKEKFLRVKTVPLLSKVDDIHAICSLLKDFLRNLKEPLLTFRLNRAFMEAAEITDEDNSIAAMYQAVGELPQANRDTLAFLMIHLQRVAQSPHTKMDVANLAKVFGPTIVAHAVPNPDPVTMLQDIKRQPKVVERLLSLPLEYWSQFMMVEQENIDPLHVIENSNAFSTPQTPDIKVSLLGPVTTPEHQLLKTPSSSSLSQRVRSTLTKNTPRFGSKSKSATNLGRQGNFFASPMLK

Cytochrome P450 3A4 = Cytochrome P450 3A4 (Homo sapiens, UniProt P08684); conditions: Potency;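 note: confirmatory qHTS run detecting inhibitors and substrates of CYP3A4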
Nonstructural protein 1 = Nonstructural protein 1 (Influenza A virus, UniProt Q194T2); assay type: functional, Influenza A virus (A/California/07/2009(H1N1))
CAAX prenyl protease 2 [5] = biological target: T2, CAAX prenyl protease 2 (Saccharomyces cerevisiae S288c, UniProt Q03530); assay type: biochemical
T2 sequence (Q03530 whole entry): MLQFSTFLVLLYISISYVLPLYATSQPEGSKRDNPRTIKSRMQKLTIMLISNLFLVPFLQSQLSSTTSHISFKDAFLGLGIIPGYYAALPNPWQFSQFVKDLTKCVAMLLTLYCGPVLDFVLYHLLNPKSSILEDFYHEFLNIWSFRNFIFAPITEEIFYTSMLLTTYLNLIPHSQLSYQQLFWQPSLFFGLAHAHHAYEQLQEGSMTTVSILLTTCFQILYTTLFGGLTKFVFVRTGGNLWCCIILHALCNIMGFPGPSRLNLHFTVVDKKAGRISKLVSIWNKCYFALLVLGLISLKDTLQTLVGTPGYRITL

CAAX prenyl protease 2 [6] = biological target: T3, CAAX prenyl protease 2 (Homo sapiens, UniProt Q9Y256); experiment: human Rce1 protease inhibitors, dose response, biochemical, yeast membranes, quenched-peptide fluorescence, cherry-pick (AID 588849)
T3 sequence (Q9Y256 whole entry): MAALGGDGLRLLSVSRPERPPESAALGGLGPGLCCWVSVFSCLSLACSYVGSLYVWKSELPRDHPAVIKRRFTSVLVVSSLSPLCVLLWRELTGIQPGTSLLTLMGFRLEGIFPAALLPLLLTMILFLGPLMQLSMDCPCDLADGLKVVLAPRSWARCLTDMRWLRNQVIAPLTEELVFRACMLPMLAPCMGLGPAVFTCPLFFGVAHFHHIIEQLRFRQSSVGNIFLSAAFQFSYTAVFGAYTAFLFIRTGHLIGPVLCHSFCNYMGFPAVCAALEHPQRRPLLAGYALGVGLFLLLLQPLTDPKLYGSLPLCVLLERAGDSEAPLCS

[7] = biological target: T4, Endoribonuclease toxin MazF (Escherichia coli K-12, UniProt P0AE70); experiment: fluorescent RNA oligo signal without MazF, dose response, counter-screen for MazEF activator project, biochemical, fluorescence, single-stranded RNase substrate (AID 588502); assay type: functional
T4 sequence (P0AE70 whole entry): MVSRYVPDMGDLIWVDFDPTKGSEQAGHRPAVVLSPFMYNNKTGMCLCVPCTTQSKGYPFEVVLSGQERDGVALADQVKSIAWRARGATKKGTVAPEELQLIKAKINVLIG

[8] = biological target: T4, Endoribonuclease toxin MazF; experiment: MazF toxin RNase activators, dose response, biochemical, fluorescence, single-stranded RNA substrate, uHTS hits (AID 588481); assay type: functional
[9] = biological target: T5, RNA-binding protein pos-1 (Caenorhabditis elegans, UniProt G5EF15); experiment: inhibitors of POS-1/mex-3 RNA binding, dose response, biochemical, fluorescence polarization (AID 1964);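 note: purified POS-1 fused to maltose binding protein made in E. coli; potency of compounds blocking POS-1 binding to fluorescent RNA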
T5 sequence (G5EF15 whole entry): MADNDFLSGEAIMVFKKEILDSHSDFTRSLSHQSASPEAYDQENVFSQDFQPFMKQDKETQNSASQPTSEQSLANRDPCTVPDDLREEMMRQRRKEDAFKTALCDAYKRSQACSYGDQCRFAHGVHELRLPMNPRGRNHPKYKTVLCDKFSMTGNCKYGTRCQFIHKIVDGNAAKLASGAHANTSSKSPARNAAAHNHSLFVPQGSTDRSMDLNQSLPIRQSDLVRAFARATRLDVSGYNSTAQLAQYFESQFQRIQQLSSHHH

[10] = biological target: T6, Zinc finger protein mex-5 (Caenorhabditis elegans, UniProt Q9XUB2); experiment: MEX-5/TCR-2 RNA interaction inhibitors, dose response, biochemical, C. elegans, fluorescence polarization (AID 1960)
T6 sequence (Q9XUB2 whole entry): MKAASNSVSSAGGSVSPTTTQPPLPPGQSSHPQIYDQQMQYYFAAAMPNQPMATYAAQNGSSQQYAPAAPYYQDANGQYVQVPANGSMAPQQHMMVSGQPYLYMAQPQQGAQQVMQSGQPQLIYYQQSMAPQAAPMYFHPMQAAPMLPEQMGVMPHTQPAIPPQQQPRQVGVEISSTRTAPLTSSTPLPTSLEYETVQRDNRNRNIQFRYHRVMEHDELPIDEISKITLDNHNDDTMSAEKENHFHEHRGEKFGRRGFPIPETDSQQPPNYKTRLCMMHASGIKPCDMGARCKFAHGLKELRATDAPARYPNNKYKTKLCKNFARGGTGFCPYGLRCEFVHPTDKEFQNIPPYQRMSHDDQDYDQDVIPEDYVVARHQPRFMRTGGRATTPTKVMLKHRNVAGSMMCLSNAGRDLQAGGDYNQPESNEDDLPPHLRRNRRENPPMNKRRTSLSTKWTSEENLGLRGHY

[11] = biological target: T7, Low molecular weight phosphotyrosine protein phosphatase (Homo sapiens, UniProt P24666); assay type: functional; conditions: read-out: IC50_Mean
T7 sequence (P24666 whole entry): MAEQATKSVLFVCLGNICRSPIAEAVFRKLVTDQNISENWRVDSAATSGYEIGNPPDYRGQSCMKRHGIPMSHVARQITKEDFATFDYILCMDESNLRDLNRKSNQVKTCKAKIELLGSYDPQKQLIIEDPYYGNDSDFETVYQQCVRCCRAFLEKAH

[12] = biological target: T7, Low molecular weight phosphotyrosine protein phosphatase; assay type: functional; conditions: read-out: IC50_Mean; remark: listed apart in the source
[13] = biological target: T8, Carboxy-terminal domain RNA polymerase II polypeptide A small phosphatase 1 (Homo sapiens, UniProt Q9GZU7); experiment: inhibitors of CTDSP1, concentration-response testing, biochemical assay, absorbance-based, actives from ultra-high-throughput screening (AID 540297); assay type: functional
T8 sequence (Q9GZU7 whole entry): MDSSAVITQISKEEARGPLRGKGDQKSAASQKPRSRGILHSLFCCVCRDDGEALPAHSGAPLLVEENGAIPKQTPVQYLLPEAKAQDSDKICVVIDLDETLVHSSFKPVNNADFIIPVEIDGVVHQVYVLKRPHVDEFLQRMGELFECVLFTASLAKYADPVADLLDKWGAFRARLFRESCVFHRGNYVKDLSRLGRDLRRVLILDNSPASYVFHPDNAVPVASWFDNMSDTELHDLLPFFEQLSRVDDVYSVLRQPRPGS

[14] = biological target: 26S proteasome non-ATPase regulatory subunit 14 (Homo sapiens, UniProt O00487); experiment: inhibition of proteasome subunit RPN11 – biochemical, fluorescence polarization, uHTS hits, confirmation (AID 602368); assay type: functional
Prothrombin = Prothrombin (Bos taurus, UniProt P00735); experiment: thrombin inhibition, dose response, biochemical, fluorescence polarization, uHTS hits (AID 602369); assay type: functional
[15] = biological target: 72 kDa type IV collagenase (Homo sapiens, UniProt P08253); experiment: Dose Response validation of uHTS RPN11 inhibitor hits using a MMP-2 Fluorescence assay.; assay type: functional
[16] = biological target: T9, Ubiquitin-conjugating enzyme E2 N (Homo sapiens, UniProt P61088); assay type: functional
T9 sequence (P61088 whole entry): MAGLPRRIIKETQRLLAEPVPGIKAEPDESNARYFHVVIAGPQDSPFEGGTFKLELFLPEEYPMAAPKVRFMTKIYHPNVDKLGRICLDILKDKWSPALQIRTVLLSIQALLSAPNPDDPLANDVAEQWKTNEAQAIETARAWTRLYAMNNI

[17] = biological target: T9, Ubiquitin-conjugating enzyme E2 N; assay type: functional; remark: listed apart in the source
Bcl-2-related protein A1 = biological target: T10, Bcl-2-related protein A1 (Mus musculus, UniProt Q07440); assay type: functional;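 note: confirmatory dose–response counterscreen on Bfl-1, used to check hits from a UBC13 polyubiquitin inhibitor campaign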
T10 sequence (Q07440 whole entry): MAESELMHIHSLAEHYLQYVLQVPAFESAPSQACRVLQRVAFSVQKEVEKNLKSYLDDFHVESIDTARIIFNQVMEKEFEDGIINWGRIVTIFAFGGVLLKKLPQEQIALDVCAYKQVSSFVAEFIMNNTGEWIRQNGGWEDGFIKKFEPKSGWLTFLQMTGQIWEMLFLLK

[18] = M. tuberculosis H37Rv growth inhibitors, H37Rv strain (AID 1626); assay type: functional

Chain of Voltage-gated inwardly rectifying potassium channel KCNH2 (Q12809 whole entry): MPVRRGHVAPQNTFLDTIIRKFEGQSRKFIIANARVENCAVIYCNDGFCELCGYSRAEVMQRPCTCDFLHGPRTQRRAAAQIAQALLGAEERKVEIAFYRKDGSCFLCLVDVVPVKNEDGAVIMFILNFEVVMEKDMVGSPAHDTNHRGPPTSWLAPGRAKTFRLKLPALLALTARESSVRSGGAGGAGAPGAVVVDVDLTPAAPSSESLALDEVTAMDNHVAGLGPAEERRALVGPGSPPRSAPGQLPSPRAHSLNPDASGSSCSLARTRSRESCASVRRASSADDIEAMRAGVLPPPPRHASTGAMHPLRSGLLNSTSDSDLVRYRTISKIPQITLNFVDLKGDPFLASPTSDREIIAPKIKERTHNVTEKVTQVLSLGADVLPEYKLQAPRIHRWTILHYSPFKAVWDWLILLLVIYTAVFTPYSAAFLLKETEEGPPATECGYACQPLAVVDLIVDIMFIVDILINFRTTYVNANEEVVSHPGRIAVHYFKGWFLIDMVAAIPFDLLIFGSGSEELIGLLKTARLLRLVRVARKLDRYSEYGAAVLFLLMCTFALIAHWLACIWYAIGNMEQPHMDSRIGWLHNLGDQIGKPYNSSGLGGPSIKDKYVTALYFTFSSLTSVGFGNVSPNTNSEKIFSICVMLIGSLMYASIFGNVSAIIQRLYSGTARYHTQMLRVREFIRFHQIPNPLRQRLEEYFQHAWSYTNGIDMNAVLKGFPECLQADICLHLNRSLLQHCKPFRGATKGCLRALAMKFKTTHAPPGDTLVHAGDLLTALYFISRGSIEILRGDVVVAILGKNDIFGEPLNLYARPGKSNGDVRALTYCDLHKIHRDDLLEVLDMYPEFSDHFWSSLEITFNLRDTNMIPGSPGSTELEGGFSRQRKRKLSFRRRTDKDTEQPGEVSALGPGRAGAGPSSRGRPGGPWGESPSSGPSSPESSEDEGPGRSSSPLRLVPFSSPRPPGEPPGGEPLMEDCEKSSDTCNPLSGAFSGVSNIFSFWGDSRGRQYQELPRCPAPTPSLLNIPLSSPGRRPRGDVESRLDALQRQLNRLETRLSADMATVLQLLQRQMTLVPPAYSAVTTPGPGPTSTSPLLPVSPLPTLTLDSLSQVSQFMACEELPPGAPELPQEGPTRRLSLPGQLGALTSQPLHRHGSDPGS
Chain of Delta-type opioid receptor (P41143 whole entry): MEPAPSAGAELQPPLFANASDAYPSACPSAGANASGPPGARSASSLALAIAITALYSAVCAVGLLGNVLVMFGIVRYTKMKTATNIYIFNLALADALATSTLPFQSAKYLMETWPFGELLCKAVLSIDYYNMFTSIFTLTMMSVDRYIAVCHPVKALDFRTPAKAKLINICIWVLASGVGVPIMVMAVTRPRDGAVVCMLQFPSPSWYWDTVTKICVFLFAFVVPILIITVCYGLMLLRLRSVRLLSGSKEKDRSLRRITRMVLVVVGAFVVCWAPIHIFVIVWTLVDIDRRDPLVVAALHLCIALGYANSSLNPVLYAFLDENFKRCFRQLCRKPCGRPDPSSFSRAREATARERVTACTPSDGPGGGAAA
Chain of Cytochrome P450 3A4 (P08684 whole entry): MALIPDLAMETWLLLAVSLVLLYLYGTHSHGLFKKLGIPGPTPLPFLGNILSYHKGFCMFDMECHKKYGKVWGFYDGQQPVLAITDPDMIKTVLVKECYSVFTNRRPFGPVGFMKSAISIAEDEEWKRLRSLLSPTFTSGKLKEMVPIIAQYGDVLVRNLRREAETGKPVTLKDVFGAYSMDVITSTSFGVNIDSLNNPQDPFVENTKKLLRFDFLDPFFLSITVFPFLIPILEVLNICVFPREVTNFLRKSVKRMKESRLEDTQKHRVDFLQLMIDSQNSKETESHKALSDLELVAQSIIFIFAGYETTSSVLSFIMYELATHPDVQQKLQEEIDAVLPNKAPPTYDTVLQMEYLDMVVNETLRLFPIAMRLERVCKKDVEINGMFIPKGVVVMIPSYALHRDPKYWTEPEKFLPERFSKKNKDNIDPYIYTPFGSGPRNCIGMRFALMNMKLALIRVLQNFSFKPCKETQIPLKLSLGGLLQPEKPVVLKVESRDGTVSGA
Chain of Nonstructural protein 1 (Q194T2 whole entry): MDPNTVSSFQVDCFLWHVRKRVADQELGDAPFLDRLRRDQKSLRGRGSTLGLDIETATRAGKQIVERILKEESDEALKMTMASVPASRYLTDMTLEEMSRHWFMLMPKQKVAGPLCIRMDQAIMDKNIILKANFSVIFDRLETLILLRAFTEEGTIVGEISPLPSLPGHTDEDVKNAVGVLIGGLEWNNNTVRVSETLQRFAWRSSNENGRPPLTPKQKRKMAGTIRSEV
Chain of 72 kDa type IV collagenase (P08253 whole entry): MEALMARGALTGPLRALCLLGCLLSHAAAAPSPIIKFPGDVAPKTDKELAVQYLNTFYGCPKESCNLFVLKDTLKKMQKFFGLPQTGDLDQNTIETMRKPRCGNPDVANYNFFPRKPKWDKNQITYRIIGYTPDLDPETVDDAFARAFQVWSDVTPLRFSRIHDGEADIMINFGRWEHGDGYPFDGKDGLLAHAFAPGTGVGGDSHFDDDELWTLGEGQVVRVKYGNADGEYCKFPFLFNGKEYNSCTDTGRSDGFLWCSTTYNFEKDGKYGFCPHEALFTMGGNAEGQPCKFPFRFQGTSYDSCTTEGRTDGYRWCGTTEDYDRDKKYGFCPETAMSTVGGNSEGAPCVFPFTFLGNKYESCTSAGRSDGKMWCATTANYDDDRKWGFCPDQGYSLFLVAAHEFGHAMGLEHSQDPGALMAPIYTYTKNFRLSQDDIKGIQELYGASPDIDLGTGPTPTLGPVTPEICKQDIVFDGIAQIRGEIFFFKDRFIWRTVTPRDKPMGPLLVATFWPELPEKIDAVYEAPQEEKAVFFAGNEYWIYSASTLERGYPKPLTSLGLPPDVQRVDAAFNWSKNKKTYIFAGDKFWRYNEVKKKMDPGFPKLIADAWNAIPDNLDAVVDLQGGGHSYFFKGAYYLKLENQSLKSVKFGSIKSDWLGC
Chain of Mu-type opioid receptor (P35372 whole entry): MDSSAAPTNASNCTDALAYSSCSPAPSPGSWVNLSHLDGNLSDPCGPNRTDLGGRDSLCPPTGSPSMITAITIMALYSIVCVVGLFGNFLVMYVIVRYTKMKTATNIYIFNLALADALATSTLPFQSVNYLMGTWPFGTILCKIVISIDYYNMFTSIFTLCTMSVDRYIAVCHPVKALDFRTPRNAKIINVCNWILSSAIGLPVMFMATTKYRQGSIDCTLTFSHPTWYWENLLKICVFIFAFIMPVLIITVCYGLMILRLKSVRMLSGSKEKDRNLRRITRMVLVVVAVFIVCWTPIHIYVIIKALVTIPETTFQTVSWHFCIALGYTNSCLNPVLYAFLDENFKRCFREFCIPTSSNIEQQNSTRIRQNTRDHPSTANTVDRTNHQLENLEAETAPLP
Chain of 26S proteasome non-ATPase regulatory subunit 14 (O00487 whole entry): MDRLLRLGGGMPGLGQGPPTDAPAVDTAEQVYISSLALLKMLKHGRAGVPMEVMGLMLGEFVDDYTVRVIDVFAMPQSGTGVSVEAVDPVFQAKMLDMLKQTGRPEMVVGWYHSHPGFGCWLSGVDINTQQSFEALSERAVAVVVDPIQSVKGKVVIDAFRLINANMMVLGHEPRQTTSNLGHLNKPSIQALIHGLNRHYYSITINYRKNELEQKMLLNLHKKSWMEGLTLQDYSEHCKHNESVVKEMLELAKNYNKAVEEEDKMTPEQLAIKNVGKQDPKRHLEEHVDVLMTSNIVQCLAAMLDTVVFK
Chain of 5-hydroxytryptamine receptor 5A (P47898 whole entry): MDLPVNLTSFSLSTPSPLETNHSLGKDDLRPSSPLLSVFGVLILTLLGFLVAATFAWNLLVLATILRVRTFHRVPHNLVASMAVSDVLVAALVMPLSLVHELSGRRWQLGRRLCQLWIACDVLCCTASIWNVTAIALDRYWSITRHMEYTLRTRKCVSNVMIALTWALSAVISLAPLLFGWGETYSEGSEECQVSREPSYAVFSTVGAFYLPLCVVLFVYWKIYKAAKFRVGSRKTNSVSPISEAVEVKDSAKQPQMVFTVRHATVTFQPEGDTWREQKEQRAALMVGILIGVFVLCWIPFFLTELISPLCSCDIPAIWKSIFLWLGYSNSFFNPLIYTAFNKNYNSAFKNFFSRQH

SMILES: Cc1nnc2sc(-c3ccc(N(C)C)cc3)nn2c1=O
- AC50 (HeLa): 55.2 µM (active)

SMILES: CN(C(=O)Cc1ccc(Cl)c(Cl)c1)C(CN1CCCC1)c1cccc(OCC(=O)O)c1 (stereo not drawn)
- EC50 [1]: 17.2 µM (inactive)
- EC50 (Mu-type opioid receptor): > 92.5 µM (inactive)
- AC50 [2]: 35.5 µM (inconclusive)
- EC50 [3]: > 92.5 µM (inactive)

SMILES: CN(C)c1ccc(Cc2ccc(N(C)C)cc2)cc1
- IC50 [4]: 73.2 µM (active)
- AC50 (Cytochrome P450 3A4): 12.6 µM (inconclusive)
- AC50 [2]: 70.8 µM (inconclusive)
- IC50 (Nonstructural protein 1): 36.6 µM (active)

SMILES: O=C(CC1(O)C(=O)N(C/C=C/c2ccccc2)c2ccccc21)c1ccccn1 (stereo not drawn)
- AC50 (CAAX prenyl protease 2 [5]): 26.3 µM (active)
- AC50 (CAAX prenyl protease 2 [6]): 59.1 µM (active)

SMILES: Cn1nc(C(F)(F)F)cc1-c1ccc(/C=C(\C#N)C(=O)c2ccccc2)s1
- EC50 [7]: > 99 µM (inactive)
- EC50 [8]: > 99 µM (inactive)
- EC50 [9]: 21.1 µM (inconclusive)
- EC50 [10]: 11.2 µM (inconclusive)

SMILES: O=c1c(Cl)c(N/N=C/c2ccc(Br)cc2)cnn1-c1ccccc1
- IC50 [11]: 21.6 µM (inactive)
- IC50 [12]: > 80 µM (inactive)
- IC50 [13]: > 80 µM (inactive)
- IC50 [14]: 21.2 µM (active)
- IC50 (Prothrombin): > 100 µM (inactive)
- IC50 [15]: > 100 µM (inactive)

SMILES: CC(=O)OC1CCC2(C)C(COc3ccc4ccc(=O)oc4c3)C(C)(O)CCC2C1(C)C (stereo not drawn)
- AC50 (CAAX prenyl protease 2 [5]): 18.1 µM (active)
- AC50 (CAAX prenyl protease 2 [6]): 87.2 µM (active)

SMILES: Nc1ccc(Cc2ccc(N)c(Cl)c2)cc1Cl
- AC50 [2]: 79.4 µM (inconclusive)

SMILES: COc1cc(C2C(C#N)=C(N)Oc3[nH]nc(-c4cccs4)c32)cc(OC)c1O (stereo not drawn)
- EC50 [7]: 13.3 µM (active)
- IC50 [16]: 3.38 µM (active)
- EC50 [8]: > 99 µM (inactive)
- IC50 [17]: 1.47 µM (active)
- IC50 (Bcl-2-related protein A1): > 20 µM (inactive)

SMILES: Fc1cccc(-c2cc3nc(-c4ccccc4)cc(N4CCC5(CC4)OCCO5)n3n2)c1
- AC50 (CAAX prenyl protease 2 [6]): 1.35 µM (active)
- IC50 [18]: > 100 µM (active)

SMILES: COc1ccc2cc(CCNC(=O)c3cccs3)c(O)nc2c1
- AC50 (HeLa): 51 µM (active)

SMILES: c1ccc(-n2ncc3c(NCc4cccs4)ncnc32)cc1
- AC50 (HeLa): 55.5 µM (active)
